Key:
[1] = target: T1, TLR7 (Homo sapiens, UniProt Q9NYK1); experiment: TLR7 cell based assay (HEK-BLUE-hTLR7, SEAP reporter linked to NF-κB activation); details: HEK-BLUE-hTLR7 cells, 24 hours treatment, SEAP/QUANTI-Blue readout
T1 construct: host or cells: HEK293 (HEK-BLUE-hTLR7)
T1 sequence (Q9NYK1 27-1049): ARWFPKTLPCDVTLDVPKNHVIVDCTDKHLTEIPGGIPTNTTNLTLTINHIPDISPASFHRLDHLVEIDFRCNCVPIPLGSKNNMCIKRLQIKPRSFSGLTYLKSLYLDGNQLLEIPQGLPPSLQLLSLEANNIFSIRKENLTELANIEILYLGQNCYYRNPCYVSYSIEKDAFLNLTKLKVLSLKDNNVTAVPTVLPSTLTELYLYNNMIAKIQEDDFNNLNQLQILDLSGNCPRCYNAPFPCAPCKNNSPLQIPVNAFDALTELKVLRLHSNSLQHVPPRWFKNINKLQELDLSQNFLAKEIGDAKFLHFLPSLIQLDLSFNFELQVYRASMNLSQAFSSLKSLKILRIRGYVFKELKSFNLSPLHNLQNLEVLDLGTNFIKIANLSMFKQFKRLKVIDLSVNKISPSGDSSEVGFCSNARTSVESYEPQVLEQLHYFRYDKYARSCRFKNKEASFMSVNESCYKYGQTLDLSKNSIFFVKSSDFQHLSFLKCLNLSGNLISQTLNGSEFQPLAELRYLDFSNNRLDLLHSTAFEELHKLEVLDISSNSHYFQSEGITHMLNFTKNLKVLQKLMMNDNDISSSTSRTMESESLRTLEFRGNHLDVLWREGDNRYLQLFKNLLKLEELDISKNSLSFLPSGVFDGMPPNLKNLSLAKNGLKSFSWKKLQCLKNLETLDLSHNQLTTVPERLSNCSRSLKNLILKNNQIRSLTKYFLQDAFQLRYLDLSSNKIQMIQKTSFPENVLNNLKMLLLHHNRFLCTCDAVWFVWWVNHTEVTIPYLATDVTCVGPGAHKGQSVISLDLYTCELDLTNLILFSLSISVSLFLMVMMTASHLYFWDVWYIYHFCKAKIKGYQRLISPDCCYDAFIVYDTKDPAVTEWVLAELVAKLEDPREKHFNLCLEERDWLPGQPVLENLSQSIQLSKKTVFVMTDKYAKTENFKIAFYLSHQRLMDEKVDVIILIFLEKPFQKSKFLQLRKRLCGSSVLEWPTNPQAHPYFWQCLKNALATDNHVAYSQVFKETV
Description: (§1) In this assay, the bioactivity of compound of formula (I) was measured using a cell based assay. The assay was performed in human embryonic kidney cells (HEK293) expressing TLR7 or other TLR family members such as TLR4, and TLR9 (for selectivity screens). The activity of specific TLR agonists was assessed using the secretory embryonic alkaline phosphatase (SEAP) reporter gene that is linked to NF-κB activation in response to TLR stimulation. The SEAP activity was measured using the Quanti-Blue substrate (InvivoGen) after TLR agonist treatment.
(§2) The detailed experimental method is as follow:
HEK-BLUE-hTLR7 cell line was purchased from InvivoGen. The cells were cultured in Dulbecco's Modified Eagle's Media containing 4.5 g/L […] (Sigma-Aldrich) and 10% FBS. The cells were cultured at 37° C., 95% humidity and 5% CO2.
[…] A known TLR8 agonist was added as positive control and 1 μl of DMSO was added as negative control.
(§3) The cells were prepared as follows. The cells were removed from the incubator and growth medium was discarded. The cells were gently rinsed with pre-warmed 10 ml PBS for a T-150 flask. 12 ml pre-warmed growth medium was added, and the cells were detached by tapping the flask. Cell clumps were dissociated by gently pipetting up and down. The cells were counted. Single cell suspension was prepared at 200,000 cells per ml in growth medium and 200 μl of the cell suspension (40,000 cells per well) were immediately added to each well of the plate. The final DMSO concentration of each well was 0.5%.
The cells were cultured and treated with the compounds at 37° C., 5% CO2 for 24 hours.
(§4) 20 μL of the supernatant of each well were added to 180 μL of QUANTI-Blue, and the plates were incubated at 37° C. for 1.5 hour. Optical density was measured using a spectrophotometer at 650 nm (OD data). Activivation was calculated by using the equation below: Activivation %=(Compound OD mean value−DMSO OD mean value)/(positive control OD mean value−DMSO OD mean value)×100
(§5) The data were analyzed using the GraphPad to get EC50 values and fitting dose response curves of the compounds.

[2] = target: T2, TLR8 (Homo sapiens, UniProt Q9NR97); experiment: TLR8 cell based assay (HEK-BLUE-hTLR8, SEAP reporter linked to NF-κB activation); details: HEK-BLUE-hTLR8 cells
T2 construct: host or cells: HEK293 (HEK-BLUE-hTLR8)
T2 sequence (Q9NR97 27-1041): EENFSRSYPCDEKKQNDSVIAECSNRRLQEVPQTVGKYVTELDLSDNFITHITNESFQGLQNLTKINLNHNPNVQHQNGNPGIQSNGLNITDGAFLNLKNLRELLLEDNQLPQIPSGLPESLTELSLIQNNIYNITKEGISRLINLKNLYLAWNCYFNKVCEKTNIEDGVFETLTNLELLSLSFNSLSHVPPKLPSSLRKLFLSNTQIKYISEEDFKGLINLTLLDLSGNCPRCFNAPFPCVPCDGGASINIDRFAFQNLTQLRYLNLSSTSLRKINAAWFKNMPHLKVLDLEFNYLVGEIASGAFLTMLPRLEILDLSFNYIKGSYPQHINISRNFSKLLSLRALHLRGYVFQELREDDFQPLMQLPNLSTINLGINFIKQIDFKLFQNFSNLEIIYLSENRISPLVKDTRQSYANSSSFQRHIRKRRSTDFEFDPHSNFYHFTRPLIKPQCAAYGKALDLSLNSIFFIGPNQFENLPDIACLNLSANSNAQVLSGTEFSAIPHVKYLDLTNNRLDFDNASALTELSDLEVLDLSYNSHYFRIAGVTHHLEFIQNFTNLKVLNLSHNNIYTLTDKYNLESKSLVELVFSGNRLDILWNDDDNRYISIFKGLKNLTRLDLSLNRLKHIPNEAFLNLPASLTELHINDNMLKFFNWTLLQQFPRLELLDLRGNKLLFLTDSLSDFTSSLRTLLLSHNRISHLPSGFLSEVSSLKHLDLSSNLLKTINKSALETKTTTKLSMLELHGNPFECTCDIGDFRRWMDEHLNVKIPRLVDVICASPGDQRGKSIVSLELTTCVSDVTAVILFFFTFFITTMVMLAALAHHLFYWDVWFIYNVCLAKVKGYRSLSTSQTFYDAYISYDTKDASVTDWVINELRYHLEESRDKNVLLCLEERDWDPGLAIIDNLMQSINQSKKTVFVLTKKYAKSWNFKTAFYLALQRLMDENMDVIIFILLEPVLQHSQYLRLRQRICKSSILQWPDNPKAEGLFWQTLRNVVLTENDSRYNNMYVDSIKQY
Description: as §1, with “Iw as” for “(I) was”, “TLR8” for “TLR7”, “TLR4, TLR7” for “TLR4,”
as §2
HEK-BLUE-hTLR8 cell line was purchased from InvivoGen. The cells were cultured in Dulbecco's Modified Eagle's Media containing 4.5 g/L […] (Sigma-Aldrich) and 10% FBS. The cells were cultured at 37° C., 95% humidity and 5% CO2.
Test concentrations of the compounds ranged from 0.5 nM to 15 μM with 10 points. A known TLR8 agonist was added as positive control and 1 μl of DMSO was added as negative control.
as §3, with “follows:” for “follows.”
The cells were cultured and treated with the compounds at 37° C., 5% CO2 for 24 h.
as §4, §5

[3] = 24 h treatment, SEAP/QUANTI-Blue readout

SMILES	EC50 [1] [µM]	EC50 [2, 3] [nM]	EC50 ([2]; bound stated) [nM]
CCCN(CCC)C(=O)C1=Cc2ccc(-c3ccc4c(c3)CCN(CCO)C4=O)cc2N=C(N)C1 [Compound 1-4-10]	> 50	100 to 1000	
CCCN(CCC)C(=O)C1=Cc2ccc(-c3ccc4c(=O)n(CC(=O)N(C)C)ccc4c3)cc2N=C(N)C1 [Compound 1-2-24]		< 100	
CCCN(CCC)C(=O)C1=Cc2ccc(-c3ccc4c(=O)n(CCCO)ccc4c3)cc2N=C(N)C1 [Compound 1-2-7]		100 to 1000	
CCCN(CCC)C(=O)C1=Cc2ccc(-c3ccc4c(=O)n(Cc5cnccn5)ccc4c3)cc2N=C(N)C1 [Compound 1-2-44]		< 100	
CCCN(CCC)C(=O)C1=Cc2ccc(-c3ccc4c(=O)n(Cc5ncnn5C)ccc4c3)cc2N=C(N)C1 [Compound 1-2-41]		< 100	< 10
CCCN(CCC)C(=O)C1=Cc2ccc(-c3ccc4c(=O)n(CC)ccc4c3)cc2N=C(N)C1 [Compound 1-2-3]		100 to 1000	
CCCN(CCC)C(=O)C1=Cc2ccc(-c3ccc4c(=O)n(CC(=O)NCC)ccc4c3)cc2N=C(N)C1 [Compound 1-2-25]		< 100	
CCCN(CCC)C(=O)C1=Cc2ccc(-c3ccc4c(=O)n(CC)c(C)cc4c3)cc2N=C(N)C1 [Compound 1-2-2]		100 to 1000	
CCCN(CCC)C(=O)C1=Cc2ccc(-c3ccc4ccn(CCO)c(=O)c4c3)cc2N=C(N)C1 [Compound 1-2-51]		1000 to 10000	
CCCN(CCC)C(=O)C1=Cc2ccc(-c3ccc4c(c3)CCN(CC)C4=O)cc2N=C(N)C1 [Compound 1-4-1]		100 to 1000	
CCCCn1ccc2cc(-c3ccc4c(c3)N=C(N)CC(C(=O)N(CCC)CCC)=C4)ccc2c1=O [Compound 1-2-27]		100 to 1000	
CCCN(CCC)C(=O)C1=Cc2ccc(-c3ccc4c(=O)n(CC(=O)O)ccc4c3)cc2N=C(N)C1 [Compound 1-2-42]		1000 to 10000	
CCCN(CCC)C(=O)C1=Cc2ccc(-c3ccc4c(=O)n(CCO)ccc4c3)cc2N=C(N)C1 [Compound 1-2-6]		< 100	
CCCN(CCC)C(=O)C1=Cc2ccc(-c3ccc4c(=O)n(CCP(=O)(OCC)OCC)ncc4c3)cc2N=C(N)C1 [Compound 1-8-14]		< 100	
CCCN(CCC)C(=O)C1=Cc2ccc(-c3ccc4c(=O)n(Cc5cc[nH]n5)ccc4c3)cc2N=C(N)C1 [Compound 1-2-34]		< 100	
CCCN(CCC)C(=O)C1=Cc2ccc(-c3ccc4c(=O)n(CCP(C)(=O)OCC)ccc4c3)cc2N=C(N)C1 (stereo not shown) [Compound 1-2-11]		< 100	
CCCN(CCC)C(=O)C1=Cc2ccc(-c3ccc4c(=O)n(CCN(C)C)ccc4c3)cc2N=C(N)C1 [Compound 1-2-12]		100 to 1000	

Next, values leading:

EC50 [1] [µM]	EC50 [2, 3] [nM]	EC50 ([2]; bound stated) [nM]	SMILES
10 to 50	< 100		CCCN(CCC)C(=O)C1=Cc2ccc(-c3ccc4c(=O)n(CCS(=O)(=O)CC)ncc4c3)cc2N=C(N)C1 [Compound 1-8-12]
	< 100	< 10	CCCN(CCC)C(=O)C1=Cc2ccc(-c3ccc4c(=O)n(CCOC)ncc4c3)cc2N=C(N)C1 [Compound 1-8-9]
	< 100		CCCN(CCC)C(=O)C1=Cc2c(F)cc(-c3ccc4c(=O)n(CCS(C)(=O)=O)ccc4c3)cc2N=C(N)C1 [Compound 1-10-4]
	< 100		CCCN(CCC)C(=O)C1=Cc2ccc(-c3ccc4c(=O)n(CC(=O)NC)cnc4c3)cc2N=C(N)C1 [Compound 1-7-3]
	100 to 1000		CCCN(CCO)C(=O)C1=Cc2ccc(-c3ccc4c(=O)n(CC(N)=O)ccc4c3)cc2N=C(N)C1 [Compound 1-12-1]
	< 100	< 10	CCCN(CCC)C(=O)C1=Cc2c(C)cc(-c3ccc4c(=O)n(Cc5ncccn5)ncc4c3)cc2N=C(N)C1 [Compound 2-3-2]
	< 100		CCCN(CCC)C(=O)C1=Cc2ccc(-c3ccc4c(=O)n(CCNS(C)(=O)=O)c(=O)n(C)c4c3)cc2N=C(N)C1 [Compound 1-9-6]
	< 100		CCCN(CCC)C(=O)C1=Cc2c(F)cc(-c3ccc4c(=O)n(CC(=O)NC)c(=O)n(C)c4c3)cc2N=C(N)C1 [Compound 1-10-5]
	< 100		CCCN(CCC)C(=O)C1=Cc2c(F)cc(-c3ccc4c(=O)n(CC(=O)NCC)ccc4c3)cc2N=C(N)C1 [Compound 1-10-7]
	< 100		CCCN(CCC)C(=O)C1=Cc2ccc(-c3ccc4c(=O)n(Cc5ccccn5)ncc4c3)cc2N=C(N)C1 [Compound 1-8-20]
	< 100	< 10	[2H]c1cc(-c2ccc3c(=O)n(CCS(C)(=O)=O)ncc3c2)cc2c1C=C(C(=O)N(CCC)CCC)CC(N)=N2 [Compound 2-2-4]

Source: patent US10669252B2, “Benzazepine derivative, preparation method, pharmaceutical composition and use thereof” (SHANGHAI DE NOVO PHARMATECH CO., LTD., priority 2016, dated 2020)
